Experimental data taken from ChEMBL document CHEMBL1201862, “PubChem BioAssay data set” (2004).
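How tested: cells in 96-well plates exposed to compound for 48 hours at five concentrations. GI50 is the concentration that inhibits growth by half.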 Activity calls are given as the source filed them. Cut-off read from the data, not from the text of the source: active = GI50 up to about 1.1 µM and inactive = higher.

Key:
Test in all cases: NCI tumour cell line growth inhibition, 48 h
[1] = tested on: RPMI-8226
[2] = tested on: OVCAR-3
[3] = tested on: HL-60
[4] = tested on: SF-295
[5] = tested on: DU-145
[6] = tested on: UO-31
[7] = tested on: SW-620
[8] = tested on: RXF 393
[9] = tested on: OVCAR-4
[10] = tested on: OVCAR-5
[11] = tested on: OVCAR-8
[12] = tested on: EKVX
[13] = tested on: SK-MEL-28
[14] = tested on: NCI-H460
[15] = tested on: SK-OV-3
[16] = tested on: BT-549
[17] = tested on: LOX IMVI
[18] = tested on: MDA-MB-435
[19] = tested on: HCT-116
[20] = tested on: A549

Row | SMILES | GI50 [1] | GI50 [2] | GI50 [3] | GI50 [4] | GI50 [5] | GI50 [6] | GI50 [7] | GI50 [8] | GI50 [9] | GI50 [10] | GI50 [11] | GI50 [12] | GI50 [13] | GI50 [14] | GI50 [15] | GI50 [16] | GI50 [17] | GI50 [18] | GI50 [19] | GI50 [20]
1 | S=C(CSc1ccccc1)Nc1cccc2ccccc12 | 35.6 µM (inactive) | 20.8 µM (inactive) | 40.9 µM (inactive) | 23.8 µM (inactive) | > 100 µM (inactive) | 46.2 µM (inactive) | 55 µM (inactive) | > 100 µM (inactive) | 21.6 µM (inactive) | 72.1 µM (inactive) | 67 µM (inactive) | 58.9 µM (inactive) | > 100 µM (inactive) | 29.9 µM (inactive) | > 100 µM (inactive) | 51.6 µM (inactive) | 50.6 µM (inactive) | 34.1 µM (inactive) | 35 µM (inactive) | 42 µM (inactive)
2 | CN(C)CCCNc1c2c(nc3ccc(Cl)cc13)CCCC2 | 7.59 µM (inactive) | 14.8 µM (inactive) | 15.9 µM (inactive) | 14.5 µM (inactive) | 13.9 µM (inactive) | 10 µM (inactive) | 9.75 µM (inactive) | 12.9 µM (inactive) | 15.3 µM (inactive) | 20 µM (inactive) | 12.8 µM (inactive) | 14.9 µM (inactive) | 18.3 µM (inactive) | 9.93 µM (inactive) | 23 µM (inactive) | 18.1 µM (inactive) | 11.9 µM (inactive) | 14.9 µM (inactive) | 6.03 µM (inactive) | 16.8 µM (inactive)
3 | CCOC(=O)c1c(-c2ccccc2)oc(=O)c(Cc2cccc3cccnc23)c1-c1ccccc1 | > 10 µM (inactive) | > 10 µM (inactive) | > 10 µM (inactive) | > 10 µM (inactive) | > 10 µM (inactive) | > 10 µM (inactive) | > 10 µM (inactive) | > 10 µM (inactive) | > 10 µM (inactive) | > 10 µM (inactive) | > 10 µM (inactive) | > 10 µM (inactive) | > 10 µM (inactive) | > 10 µM (inactive) | > 10 µM (inactive) | > 10 µM (inactive) | > 10 µM (inactive) | > 10 µM (inactive) | > 10 µM (inactive) | > 10 µM (inactive)
4 | Cc1cc(C)nc(NS(=O)(=O)c2ccc(NC(=O)c3ccc4nc5ccccc5c(Nc5ccc(S(N)(=O)=O)cc5)c4c3)cc2)n1 | 64.1 µM (inactive) | 48.5 µM (inactive) | 57.9 µM (inactive) | > 100 µM (inactive) | > 100 µM (inactive) | > 100 µM (inactive) | > 100 µM (inactive) | 33 µM (inactive) | 83.8 µM (inactive) | > 100 µM (inactive) | > 100 µM (inactive) | > 100 µM (inactive) | 86.7 µM (inactive) | > 100 µM (inactive) | > 100 µM (inactive) | 28.2 µM (inactive) | 45.6 µM (inactive) | > 100 µM (inactive) | > 100 µM (inactive) | > 100 µM (inactive)
5 | [N-]=[N+]=NC1C(O)C(CO)OC1n1ccc(N)nc1=O (stereo not drawn) | 223 µM (inactive) | 68.2 µM (inactive) | 3.83 µM (inactive) | 530 µM (inactive) | 212 µM (inactive) | 228 µM (inactive) | 159 µM (inactive) | > 206 µM (inactive) | > 625 µM (inactive) | 245 µM (inactive) | 55.5 µM (inactive) | 429 µM (inactive) | 416 µM (inactive) | 235 µM (inactive) | > 625 µM (inactive) | 161 µM (inactive) | 232 µM (inactive) | 44.3 µM (inactive) | > 172 µM (inactive) | 219 µM (inactive)
6 | Cc1cn(S(=O)(=O)c2ccccc2)c2c(OCc3ccccc3)cc([N+](=O)[O-])cc12 | > 100 µM (inactive) | > 100 µM (inactive) | > 100 µM (inactive) | 27.9 µM (inactive) | > 100 µM (inactive) | 69.3 µM (inactive) | 63 µM (inactive) | 25.1 µM (inactive) | 86.3 µM (inactive) | > 100 µM (inactive) | > 100 µM (inactive) | 35.7 µM (inactive) | 79.8 µM (inactive) | > 100 µM (inactive) | 50.8 µM (inactive) | > 100 µM (inactive) | > 100 µM (inactive) | 3.92 µM (inactive) | > 100 µM (inactive) | 41.5 µM (inactive)
7 | C=CCc1cccc2cc(C(=O)Nc3ccccc3)c(=N)oc12 | > 100 µM (inactive) | > 100 µM (inactive) | > 100 µM (inactive) |  | > 100 µM (inactive) |  | > 100 µM (inactive) | > 100 µM (inactive) | 15.6 µM (inactive) | 38.8 µM (inactive) | > 100 µM (inactive) |  | 80.4 µM (inactive) | 63.2 µM (inactive) | 61.7 µM (inactive) | > 100 µM (inactive) | > 100 µM (inactive) | 27.9 µM (inactive) | 18.1 µM (inactive) | 15 µM (inactive)
8 | Cc1cc(O)c(C(c2ccncc2)c2c(O)cc(C)[nH]c2=O)c(=O)[nH]1 | > 100 µM (inactive) | > 100 µM (inactive) | > 100 µM (inactive) | > 100 µM (inactive) | > 100 µM (inactive) | > 100 µM (inactive) |  | > 100 µM (inactive) | > 100 µM (inactive) | > 100 µM (inactive) | > 100 µM (inactive) | > 100 µM (inactive) | > 100 µM (inactive) | > 100 µM (inactive) | > 100 µM (inactive) | > 100 µM (inactive) | > 100 µM (inactive) | > 100 µM (inactive) | > 100 µM (inactive) | > 100 µM (inactive)
9 | O=C(N/N=C(COc1ccccc1)\N=C\c1cccnc1)c1ccncc1 | > 100 µM (inactive) | > 100 µM (inactive) | > 100 µM (inactive) | > 100 µM (inactive) | > 100 µM (inactive) |  | > 100 µM (inactive) | > 100 µM (inactive) | > 100 µM (inactive) | > 100 µM (inactive) | > 100 µM (inactive) | > 100 µM (inactive) | > 100 µM (inactive) | > 100 µM (inactive) | > 100 µM (inactive) | > 100 µM (inactive) | > 100 µM (inactive) | > 100 µM (inactive) | > 100 µM (inactive) | > 100 µM (inactive)
10 | O=C(Nc1ccccc1)c1cc(S(=O)(=O)Nc2n[nH]c(=O)n2-c2ccccc2)c(S)cc1Cl | > 100 µM (inactive) | > 100 µM (inactive) | > 100 µM (inactive) |  | > 100 µM (inactive) | > 100 µM (inactive) | > 100 µM (inactive) | > 100 µM (inactive) | > 100 µM (inactive) | > 100 µM (inactive) | > 100 µM (inactive) | > 100 µM (inactive) | > 100 µM (inactive) | > 100 µM (inactive) | > 100 µM (inactive) | > 100 µM (inactive) | > 100 µM (inactive) | > 100 µM (inactive) | > 100 µM (inactive) | > 100 µM (inactive)
11 | CC(=O)NC1C(OCc2ccccc2)OC(CO)C(O)C1OC(C)C(=O)NC(C(=O)NC(CCC(=O)NCCCC(=O)Nc1ccc2c(c1)CN1C(=O)c3ccccc3C1=N2)C(N)=O)C(C)C (stereo not drawn) | > 100 µM (inactive) | > 100 µM (inactive) | > 100 µM (inactive) | > 100 µM (inactive) | > 100 µM (inactive) | > 100 µM (inactive) | > 100 µM (inactive) | > 100 µM (inactive) | > 100 µM (inactive) | > 100 µM (inactive) |  | > 100 µM (inactive) | > 100 µM (inactive) | > 100 µM (inactive) | > 100 µM (inactive) | > 100 µM (inactive) | > 100 µM (inactive) | > 100 µM (inactive) | > 100 µM (inactive) | > 100 µM (inactive)
12 | C=C(CN1CC2C[C@](C(=O)OC)(c3cc4ccccc4[nH]3)C1C(OC)C2OC)S(=O)(=O)c1ccccc1 (stereo partly drawn) | 0.245 µM (active) | 3.35 µM (inactive) | 1.92 µM (inactive) | 4.65 µM (inactive) | 4 µM (inactive) | 1.49 µM (inactive) | 3.01 µM (inactive) | 3.19 µM (inactive) | 3.04 µM (inactive) | 3.71 µM (inactive) | 3.14 µM (inactive) | 3.3 µM (inactive) | 7.53 µM (inactive) | 3.07 µM (inactive) | 3.49 µM (inactive) | 3.85 µM (inactive) | 1.85 µM (inactive) | 2.29 µM (inactive) | 2.54 µM (inactive) | 3.13 µM (inactive)
13 | Oc1cc(-c2cccc(OCc3ccccc3)c2)nc2cc3c(cc12)OCO3 | 0.303 µM (active) | 0.304 µM (active) | 0.0935 µM (active) | 0.63 µM (active) | 0.644 µM (active) | 0.502 µM (active) | 0.303 µM (active) | 0.33 µM (active) | 2.81 µM (inactive) | 3.4 µM (inactive) | 0.339 µM (active) | 0.378 µM (active) | 0.632 µM (active) | 0.292 µM (active) | 0.342 µM (active) | 0.469 µM (active) | 0.269 µM (active) | 0.0902 µM (active) | 0.346 µM (active) | 0.871 µM (active)
14 | CC(OP(=O)(O)O)C(N)C(=O)O (stereo not drawn) | > 100 µM (inactive) | > 100 µM (inactive) | > 100 µM (inactive) | > 100 µM (inactive) | > 100 µM (inactive) | > 100 µM (inactive) | > 100 µM (inactive) | > 100 µM (inactive) | > 100 µM (inactive) | > 100 µM (inactive) | > 100 µM (inactive) | > 100 µM (inactive) | > 100 µM (inactive) | > 100 µM (inactive) | > 100 µM (inactive) | > 100 µM (inactive) | > 100 µM (inactive) | > 100 µM (inactive) | > 100 µM (inactive) | > 100 µM (inactive)
